Source: patent US9145405B2, “Oxadiazole compound and preparation method thereof, pharmaceutical composition and use thereof” (SHANGHAI JIAO TONG UNIVERSITY, priority 2011, dated 2015)
≈ marks a conversion by molar mass, not a printed value. Where two headings read alike, the source gives them in different places.

Key:
Vero cells = assay: Toxicity (half toxic concentration) in the anti-Cox_B3 test on Vero cells; type: cell-based
Cox_B3 virus = assay: Anti-Cox_B3 test: inhibition of cytopathic effect (CPE) in infected Vero cells, Reed-Muench; type: cell-based; conditions: for IC50: read-out: IC50 (half-inhibitory concentration for viruses)
Excerpt: The present examples verifies experimental results of anti-Cox_B3 of the compounds 1-137of the present invention, Pleconaril, 3-[3,5-dimethyl-4-[5-(3-methy-1,2-oxazolyl)propoxy]phenyl]-5-(trifluonomethyl) -1,2,4-oxadiazole is used as positive control.

[1] = Cox_B3 virus in Vero cells, CPE, Reed-Muench method

Compound | TC50 (half of the toxic concentration) (Vero cells) | IC50 (half-inhibitory concentration for viruses) (Cox_B3 virus; [1]) | TC50 (half of the toxic concentration) (Vero cells; Vero cells, Cox_B3) | IC50 (Cox_B3 virus; [1]) | IC50 (Cox_B3 virus; Vero)
2-[2,6-dimethyl-4-[(5-(trifluoromethyl)-1,2,4-oxadiazole-3-yl)phenoxyl]ethoxyl]-3-fluoro-5-methylpyridine [Compound 47] | 39.56 µg/mL | 0.082 µg/mL | – | – | –
2-[2,6-dimethyl-4-[(5-(trifluoromethyl)-1,2,4-oxadiazole-3-yl)phenoxyl]ethoxyl]-3-fluoro-5-methylpyridine [Compound 101] | 37.35 µg/mL | 0.078 µg/mL | – | – | –
3-[2,6-dimethyl-4-[(5-(trifluoromethyl)-1,2,4-oxadiazole-3-yl)phenoxyl]ethoxyl]-6-methylpyridazine [Compound 56] | 22.22 µg/mL | 0.20 µg/mL | – | – | –
3-[2,6-dimethyl-4-[(5-(trifluoromethyl)-1,2,4-oxadiazole-3-yl)phenoxyl]ethoxyl]-6-methylpyridazine [Compound 110] | 36.89 µg/mL | 0.28 µg/mL | – | – | –
3-[2-(2,6-dimethyl-4-[(5-(trifluoromethyl)-1,2,4-oxadiazole-3-yl)phenoxyl]ethoxyl]-2-formamide-6-fluoropyrazine [Compound 55] | – | 0.16 µg/mL | 36.66 µg/mL | – | –
3-[2-(2,6-dimethyl-4-[(5-(trifluoromethyl)-1,2,4-oxadiazole-3-yl)phenoxyl]ethoxyl]-2-formamide-6-fluoropyrazine [Compound 109] | – | 0.13 µg/mL | 48.21 µg/mL | – | –
3-[2-[2,6-dimethyl-4-[5-(trifluoromethyl)-1,2,4-oxadiazole-3-yl]phenoxyl]ethoxyl]isoxazole-5-carboxylate [Compound 58] | 40.67 µg/mL | 0.082 µg/mL | – | – | –
3-[3,5-dimethyl-4-[2-(3-methyl-1,2,4-thiadiazole-5-thio)ethoxyl]phenyl]-5-(trifluoromethyl)-1,2,4-oxadiazole [Compound 23] | 39.78 µg/mL | 0.12 µg/mL | – | – | –
3-[3,5-dimethyl-4-[2-(3-methyl-1,2,4-thiadiazole-5-thio)ethoxyl]phenyl]-5-(trifluoromethyl)-1,2,4-oxadiazole [Compound 77] | 38.58 µg/mL | 0.16 µg/mL | – | – | –
3-[3,5-dimethyl-4-[2-(4-methylthiazole-2-thio)ethoxyl]phenyl]-5-(trifluoromethyl)-1,2,4-oxadiazole [Compound 14] | 40.58 µg/mL | 0.11 µg/mL | – | – | –
3-[3,5-dimethyl-4-[2-(4-methylthiazole-2-thio)ethoxyl]phenyl]-5-(trifluoromethyl)-1,2,4-oxadiazole [Compound 68] | 43.87 µg/mL | 0.38 µg/mL | – | – | –
3-[3,5-dimethyl-4-[2-(5-methyl-1H-imidazole-2-thio)ethoxyl]phenyl]-5-(trifluoromethyl)-1,2,4-oxadiazole [Compound 18] | – | 0.13 µg/mL | – | – | –
3-[3,5-dimethyl-4-[(2-(cyclohexyloxy)-ethoxyl)phenyl]-5-(trifluoromethyl)-1,2,4-oxadiazole [Compound 35] | – | 0.08 µg/mL | 36.78 µg/mL | – | –
3-[3-[2,6-dimethyl-4-[5-(trifluoromethyl)-1,2,4-oxadiazole-3-yl]phenoxyl]propoxy]isoxazole-5-carboxylate [Compound 61] | 37.58 µg/mL | 0.23 µg/mL | – | – | –
4-[2,6-dimethyl-4-(5-(trifluoromethyl)-1,2,4-oxadiazole-3-yl) phenoxyl]ethoxyl]-2-hydroxy-5-fluoropyrimidine [Compound 107] | 33.82 µg/mL | 0.085 µg/mL | – | – | –
4-[2,6-dimethyl-4-[(5-(trifluoromethyl)-1,2,4-oxadiazole-3-yl)phenoxyl]ethoxyl]-2-hydroxyl-5-fluoropyrimidine [Compound 53] | 46.89 µg/mL | 0.056 µg/mL | – | – | –
4-[2,6-dimethyl-4-[(5-(trifluoromethyl)-1,2,4-oxadiazole-3-yl)phenoxyl]ethoxyl]-2-methoxyl-5-fluoropyrimidine [Compound 54] | 43.15 µg/mL | 0.067 µg/mL | – | – | –
4-[2,6-dimethyl-4-[(5-(trifluoromethyl)-1,2,4-oxadiazole-3-yl)phenoxyl]ethoxyl]-2-methoxyl-5-fluoropyrimidine [Compound 108] | 47.58 µg/mL | 0.078 µg/mL | – | – | –

Compound | TC50 (half of the toxic concentration) (Vero cells) | IC50 (half-inhibitory concentration for viruses) (Cox_B3 virus; [1]) | TC50 (half of the toxic concentration) (Vero cells; Vero cells, Cox_B3) | IC50 (Cox_B3 virus; [1]) | IC50 (Cox_B3 virus; Vero)
4-[2,6-dimethyl-4-[(5-(trifluoromethyl)-1,2,4-oxadiazole-3-yl)phenoxyl]ethoxyl]-3-fluorobenzonitrile [Compound 38] | 45.28 µg/mL | 0.048 µg/mL | – | – | –
4-[2,6-dimethyl-4-[(5-(trifluoromethyl)-1,2,4-oxadiazole-3-yl)phenoxyl]ethoxyl]-3-fluorobenzonitrile [Compound 92] | 43.78 µg/mL | 0.18 µg/mL | – | – | –
5-[2,6-dimethyl-4-[(5-(trifluoromethyl)-1,2,4-oxadiazole-3-yl)phenoxyl]ethoxyl]pyridine-2-oxy-ethylketoxime [Compound 45] | – | 0.10 µg/mL | 32.28 µg/mL | – | –
5-[2,6-dimethyl-4-[(5-(trifluoromethyl)-1,2,4-oxadiazole-3-yl)phenoxyl]ethoxyl]pyridine-2-oxy-ethylketoxime [Compound 99] | – | 0.083 µg/mL | 37.81 µg/mL | – | –
6-[2,6-dimethyl-4-[(5-(trifluoromethyl)-1,2,4-oxadiazole-3-yl)phenoxyl]ethoxyl]-3-cyanopyridine [Compound 50] | 36.88 µg/mL | 0.087 µg/mL | – | – | –
6-[2,6-dimethyl-4-[(5-(trifluoromethyl)-1,2,4-oxadiazole-3-yl)phenoxyl]ethoxyl]-3-cyanopyridine [Compound 104] | 37.56 µg/mL | 0.082 µg/mL | – | – | –
6-[2,6-dimethyl-4-[(5-(trifluoromethyl)-1,2,4-oxadiazole-3-yl)phenoxyl]ethoxyl]-5-fluoro-2-hydroxy-3-cyanopyridine [Compound 102] | 36.28 µg/mL | 0.10 µg/mL | – | – | –
6-[2,6-dimethyl-4-[(5-(trifluoromethyl)-1,2,4-oxadiazole-3-yl)phenoxyl]ethoxyl]-5-fluoro-2-hydroxyl-3-cyanopyridine [Compound 48] | 42.12 µg/mL | 0.15 µg/mL | – | – | –
6-[2,6-dimethyl-4-[(5-(trifluoromethyl)-1,2,4-oxadiazole-3-yl)phenoxyl]ethoxyl]-5-fluoro-3-cyanopyridine [Compound 46] | 38.58 µg/mL | 0.088 µg/mL | – | – | –
6-[2,6-dimethyl-4-[(5-(trifluoromethyl)-1,2,4-oxadiazole-3-yl)phenoxyl]ethoxyl]-5-fluoro-3-cyanopyridine [Compound 100] | 38.63 µg/mL | 0.069 µg/mL | – | – | –
6-[2,6-dimethyl-4-[(5-(trifluoromethyl)-1,2,4-oxadiazole-3-yl)phenoxyl]ethoxyl]-5-methylpyridine [Compound 51] | 40.58 µg/mL | 0.078 µg/mL | – | – | –
6-[2,6-dimethyl-4-[(5-(trifluoromethyl)-1,2,4-oxadiazole-3-yl)phenoxyl]ethoxyl]-5-methylpyridine [Compound 105] | 43.18 µg/mL | 0.13 µg/mL | – | – | –
6-[2,6-dimethyl-4-[(5-(trifluoromethyl)-1,2,4-oxadiazole-3-yl)phenoxyl]ethoxyl]-5-trifluoromethylpyridine [Compound 52] | 41.28 µg/mL | 0.13 µg/mL | – | – | –
6-[2,6-dimethyl-4-[(5-(trifluoromethyl)-1,2,4-oxadiazole-3-yl)phenoxyl]ethoxyl]-5-trifluoromethylpyridine [Compound 106] | 36.36 µg/mL | 0.09 µg/mL | – | – | –
6-[2,6-dimethyl-4-[(5-(trifluoromethyl)-1,2,4-oxadiazole-3-yl)phenoxyl]ethoxyl]pyridine-2-oxy-ethylketoxime [Compound 98] | 42.89 µg/mL | 0.093 µg/mL | – | – | –
Cc1cc(-c2noc(C(F)(F)F)n2)cc(C)c1OCCCOc1cc(C(F)(F)F)no1 [Compound 9, 3-[3,5-dimethyl-4-[3-(3-trifluoromethylisoxazole-5-oxy)propoxy]phenyl]-5-(trifluoromethyl)-1,2,4-oxadiazole] | – | – | – | 0.031 µg/mL (≈ 0.0687 µM) | –
Cc1cc(Cl)c(OCCCOc2c(C)cc(-c3noc(C(F)(F)F)n3)cc2C)c(Cl)c1 [Compound 130, 3-[4-[3-[2,6-dichloro-4-methylphenoxyl]propoxy]-3,5-dimethylphenyl]-5-(trifluoromethyl)-1,2,4-oxadiazole] | – | – | – | – | 0.031 µg/mL (≈ 0.0652 µM)
